Laboratory results taken from US20130243700A1, “Proteomic Antisense Molecular Shield and Targeting” (priority 2005, published 2013).

Legend:
[1] = molecular target: plate-immobilized collagen (Homo sapiens, UniProt P02452+P08123); assay: collagen binding study with iodinated FN and FNPEG-5K; details: iodinated protein; compared with native FN
Description: Purified FN was then reabsorbed to gelatin agarose. Sodium cyanoborohydride and mPEG-aldehyde (MW 5,000) were added to the resin-bound FN. […] Following this reaction and subsequent washing away of the reactants, the protein was eluted from the gelatin agarose matrix. Using this reaction sequence, the collagen binding sites within FN were not modified by the pegylation. […] To test whether the modified forms of FN retained the collagen-binding properties of native FN, binding studies using iodinated FN and FNPEG-5K were undertaken. […] Thus, the key collagen-binding properties of FN were not inhibited by this targeted modification approach.

[2] = molecular target: type I collagen (Homo sapiens, UniProt P02452+P08123); assay: platelet adhesion to type I collagen adsorbed to tissue culture plates after incubation with FN or FNPEG-5K; assay type: cell-based; details: incubated with the protein and washed
Description: (§1) Since the modified FNPEG-5K retained the collagen binding properties of native FN while lacking its intrinsic platelet activating properties, the ability of this reagent to block platelet adherence to collagen was investigated. To test this, type I collagen was adsorbed to tissue culture plates. Native FN or FNPEG-5K were then incubated with the immobilized collagen and washed. Platelet adhesion was then assessed.

[3] = test system: vascular wall components; assay: platelet adhesion to damaged blood vessels; assay type: cell-based
Description: as §1

[4] = test system: blood vessel wall molecules; assay: incubation of damaged blood vessels with biotinylated bioconjugate; assay type: binding; details: biotinylated form
Description: To further assess the ECM-binding properties FNPEG-5K, damaged blood vessels were incubated with a biotinylated form of bioconjugate.

[5] = test system: platelets; assay: platelet adhesion to FN or FNPEG-5K immobilized on tissue culture plates; assay type: cell-based, human; details: protein immobilized onto tissue culture plates; fluorescently labeled platelets
Description: As mentioned previously, FN itself has the ability to mediate adhesion of platelets. To test whether this binding potential was eliminated following mPEG-aldehyde derivatization, FN and FNPEG-5K were immobilized onto tissue culture plates. Fluorescently labeled human […] and adhesion was assessed.

Chain of type I collagen (P02452 162-1218 limits assumed): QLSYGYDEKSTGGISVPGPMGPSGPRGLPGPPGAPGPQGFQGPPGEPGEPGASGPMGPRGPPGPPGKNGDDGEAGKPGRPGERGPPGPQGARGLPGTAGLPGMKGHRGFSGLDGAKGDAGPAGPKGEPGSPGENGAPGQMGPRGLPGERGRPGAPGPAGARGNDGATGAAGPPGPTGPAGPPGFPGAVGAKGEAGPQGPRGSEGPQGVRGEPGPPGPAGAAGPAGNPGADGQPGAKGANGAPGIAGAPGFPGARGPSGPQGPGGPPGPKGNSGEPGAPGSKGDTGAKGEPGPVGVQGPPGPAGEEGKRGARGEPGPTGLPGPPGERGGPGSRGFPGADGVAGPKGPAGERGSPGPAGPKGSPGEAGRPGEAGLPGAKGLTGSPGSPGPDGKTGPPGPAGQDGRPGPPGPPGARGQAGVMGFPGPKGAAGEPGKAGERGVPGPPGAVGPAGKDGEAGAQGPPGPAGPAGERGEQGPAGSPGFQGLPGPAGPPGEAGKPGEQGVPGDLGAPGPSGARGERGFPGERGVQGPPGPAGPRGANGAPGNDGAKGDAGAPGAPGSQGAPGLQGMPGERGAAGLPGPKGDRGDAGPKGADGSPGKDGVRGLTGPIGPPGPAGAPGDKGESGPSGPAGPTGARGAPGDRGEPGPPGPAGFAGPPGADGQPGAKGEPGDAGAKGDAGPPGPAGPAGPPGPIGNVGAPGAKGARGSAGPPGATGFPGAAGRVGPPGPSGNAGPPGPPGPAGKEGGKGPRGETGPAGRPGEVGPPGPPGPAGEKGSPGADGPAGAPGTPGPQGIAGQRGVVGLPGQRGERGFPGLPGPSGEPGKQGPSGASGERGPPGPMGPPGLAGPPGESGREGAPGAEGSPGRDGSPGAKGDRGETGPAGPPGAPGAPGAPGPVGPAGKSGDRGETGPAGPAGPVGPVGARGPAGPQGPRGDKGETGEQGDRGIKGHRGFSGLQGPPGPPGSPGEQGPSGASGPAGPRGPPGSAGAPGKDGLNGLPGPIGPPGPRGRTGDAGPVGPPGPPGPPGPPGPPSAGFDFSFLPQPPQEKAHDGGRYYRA
Chain of type I collagen (P08123 80-1119 limits assumed): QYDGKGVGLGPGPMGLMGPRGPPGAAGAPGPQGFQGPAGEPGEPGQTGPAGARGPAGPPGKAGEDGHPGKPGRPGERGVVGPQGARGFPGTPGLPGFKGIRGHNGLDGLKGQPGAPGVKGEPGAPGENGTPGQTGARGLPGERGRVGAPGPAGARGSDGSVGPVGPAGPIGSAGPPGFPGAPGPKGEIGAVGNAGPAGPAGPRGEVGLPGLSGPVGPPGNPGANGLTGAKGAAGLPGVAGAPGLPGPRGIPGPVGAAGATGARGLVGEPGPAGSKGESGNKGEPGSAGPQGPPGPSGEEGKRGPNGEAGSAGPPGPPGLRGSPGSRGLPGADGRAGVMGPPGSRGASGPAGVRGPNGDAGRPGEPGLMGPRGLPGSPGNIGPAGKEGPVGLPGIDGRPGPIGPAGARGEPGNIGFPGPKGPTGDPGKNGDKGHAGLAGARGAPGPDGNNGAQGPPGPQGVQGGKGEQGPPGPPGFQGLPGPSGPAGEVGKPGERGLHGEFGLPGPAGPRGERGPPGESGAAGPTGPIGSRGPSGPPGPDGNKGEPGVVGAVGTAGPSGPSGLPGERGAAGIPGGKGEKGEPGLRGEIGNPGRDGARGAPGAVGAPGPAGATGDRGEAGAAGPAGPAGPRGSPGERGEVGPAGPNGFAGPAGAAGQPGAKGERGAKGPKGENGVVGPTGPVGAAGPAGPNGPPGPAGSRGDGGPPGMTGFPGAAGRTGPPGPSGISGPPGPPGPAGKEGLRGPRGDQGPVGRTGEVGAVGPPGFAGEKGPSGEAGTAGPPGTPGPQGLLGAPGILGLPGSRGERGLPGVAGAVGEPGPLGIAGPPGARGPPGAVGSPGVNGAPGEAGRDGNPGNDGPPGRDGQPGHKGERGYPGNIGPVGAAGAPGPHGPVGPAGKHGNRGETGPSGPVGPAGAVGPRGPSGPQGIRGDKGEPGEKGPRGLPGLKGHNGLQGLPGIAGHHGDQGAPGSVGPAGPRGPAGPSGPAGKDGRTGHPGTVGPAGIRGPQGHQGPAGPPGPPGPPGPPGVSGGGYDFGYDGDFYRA
Chain of plate-immobilized collagen (P02452 162-1218 limits assumed): as the sequence (P02452 162-1218 limits assumed) above
Chain of plate-immobilized collagen (P08123 80-1119 limits assumed): as the sequence (P08123 80-1119 limits assumed) above

FNPEG-5K: human plasma fibronectin pegylated on lysine residues with mPEG-aldehyde (MW 5,000) by reductive amination while bound to gelatin agarose
binding to plate-immobilized collagen [1]: bound plate-immobilized collagen in a manner similar to native FN | inhibition of platelet binding to type I collagen [2]: potently inhibited | blocking of platelet adhesion to vascular wall components [3]: blocks platelet adhesion to vascular wall components | coating of blood vessel wall molecules (ECM binding) [4]: coats blood vessel wall molecules | binding to platelets (platelet adhesion to immobilized protein) [5]: markedly attenuated
